{"source": "paper PMC10004634", "about": "(PLOS ONE, 2023)", "assay_in_all_cases": "biochemical", "set-up_in_all_cases": "KINOMEscan scanMAX competition binding, DNA-tagged kinases, qPCR read-out, percent control at 300 nM", "key": {"PIK3CA(M1043I)": {"target": "PIK3CA(M1043I) (Homo sapiens, UniProt P42336, M1043I)", "sequence (P42336 whole entry M1043I)": "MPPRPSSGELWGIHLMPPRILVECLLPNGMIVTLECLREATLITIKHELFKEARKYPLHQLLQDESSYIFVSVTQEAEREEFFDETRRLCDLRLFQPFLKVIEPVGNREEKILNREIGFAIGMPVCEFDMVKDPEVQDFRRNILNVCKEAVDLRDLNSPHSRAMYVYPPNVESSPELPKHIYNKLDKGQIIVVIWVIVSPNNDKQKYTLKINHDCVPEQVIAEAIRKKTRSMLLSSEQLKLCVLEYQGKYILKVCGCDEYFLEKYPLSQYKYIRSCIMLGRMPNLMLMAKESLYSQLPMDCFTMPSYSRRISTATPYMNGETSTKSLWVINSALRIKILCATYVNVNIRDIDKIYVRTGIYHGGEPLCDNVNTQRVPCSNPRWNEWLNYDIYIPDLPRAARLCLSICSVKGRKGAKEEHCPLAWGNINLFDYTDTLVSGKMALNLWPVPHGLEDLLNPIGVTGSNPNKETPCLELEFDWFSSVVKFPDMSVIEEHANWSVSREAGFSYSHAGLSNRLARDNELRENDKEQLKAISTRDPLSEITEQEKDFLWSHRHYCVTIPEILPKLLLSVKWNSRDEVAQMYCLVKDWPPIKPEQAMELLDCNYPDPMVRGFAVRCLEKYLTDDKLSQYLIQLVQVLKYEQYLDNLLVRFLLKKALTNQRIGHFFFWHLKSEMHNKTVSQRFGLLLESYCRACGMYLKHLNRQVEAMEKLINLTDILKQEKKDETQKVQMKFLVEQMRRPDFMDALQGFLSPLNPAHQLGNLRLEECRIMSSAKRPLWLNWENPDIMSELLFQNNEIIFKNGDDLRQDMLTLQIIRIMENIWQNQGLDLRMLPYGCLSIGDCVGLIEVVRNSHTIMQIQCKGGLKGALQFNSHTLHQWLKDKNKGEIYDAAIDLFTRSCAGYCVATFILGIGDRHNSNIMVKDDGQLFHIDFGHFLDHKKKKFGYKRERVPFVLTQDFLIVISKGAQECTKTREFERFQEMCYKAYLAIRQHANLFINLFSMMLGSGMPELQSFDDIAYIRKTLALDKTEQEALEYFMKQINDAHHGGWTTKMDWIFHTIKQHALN"}, "MEK3": {"target": "T1, MEK3 (Homo sapiens, UniProt P46734)", "T1 construct": "gene MAP2K3"}, "CIT": {"target": "CIT (Homo sapiens, UniProt O14578)"}, "PKMYT1": {"target": "PKMYT1 (Homo sapiens, UniProt Q99640)", "sequence (Q99640 whole entry)": "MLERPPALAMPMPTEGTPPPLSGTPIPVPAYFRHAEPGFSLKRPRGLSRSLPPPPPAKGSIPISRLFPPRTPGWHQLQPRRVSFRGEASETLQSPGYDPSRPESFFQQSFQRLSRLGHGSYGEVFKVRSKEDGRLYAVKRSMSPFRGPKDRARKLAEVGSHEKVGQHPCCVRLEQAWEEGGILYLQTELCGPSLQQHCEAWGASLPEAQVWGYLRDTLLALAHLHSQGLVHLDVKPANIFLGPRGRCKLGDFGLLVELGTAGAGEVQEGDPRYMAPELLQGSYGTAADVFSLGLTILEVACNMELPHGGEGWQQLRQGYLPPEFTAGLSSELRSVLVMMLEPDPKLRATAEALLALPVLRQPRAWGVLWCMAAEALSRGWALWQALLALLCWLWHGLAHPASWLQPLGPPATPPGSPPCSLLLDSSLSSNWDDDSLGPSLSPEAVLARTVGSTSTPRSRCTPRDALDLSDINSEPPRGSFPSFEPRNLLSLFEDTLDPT"}, "ABL1-phosphorylated": {"target": "T2, ABL1-phosphorylated (Homo sapiens, UniProt P00519)", "T2 construct": "phosphorylated"}, "PIK3CA": {"target": "PIK3CA (Homo sapiens, UniProt P42336)", "sequence (P42336 whole entry)": "as the sequence (P42336 whole entry M1043I) above, with I1043M counted along it"}, "MAPKAPK2": {"target": "MAPKAPK2 (Homo sapiens, UniProt P49137)", "sequence (P49137 whole entry)": "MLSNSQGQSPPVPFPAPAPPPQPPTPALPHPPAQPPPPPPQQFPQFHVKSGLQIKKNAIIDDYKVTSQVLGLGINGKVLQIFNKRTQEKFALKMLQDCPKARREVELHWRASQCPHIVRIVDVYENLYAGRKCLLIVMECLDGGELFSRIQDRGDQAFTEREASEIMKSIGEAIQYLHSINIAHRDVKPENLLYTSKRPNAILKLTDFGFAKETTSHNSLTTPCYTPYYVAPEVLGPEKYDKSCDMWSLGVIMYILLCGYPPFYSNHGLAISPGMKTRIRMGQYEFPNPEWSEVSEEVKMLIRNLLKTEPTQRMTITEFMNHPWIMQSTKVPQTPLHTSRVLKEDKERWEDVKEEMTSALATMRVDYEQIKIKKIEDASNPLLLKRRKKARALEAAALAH"}, "MYLK": {"target": "MYLK (Homo sapiens, UniProt Q15746)"}, "[1]": {"target": "T3, ABL1(F317L)-nonphosphorylated (Homo sapiens, UniProt P00519, F317L)", "T3 construct": "nonphosphorylated"}, "TBK1": {"target": "TBK1 (Homo sapiens, UniProt Q9UHD2)"}, "YANK1": {"target": "T4, YANK1 (Homo sapiens, UniProt Q8WU08)", "T4 construct": "gene STK32A"}, "MAP3K2": {"target": "MAP3K2 (Homo sapiens, UniProt Q9Y2U5)", "sequence (Q9Y2U5 whole entry)": "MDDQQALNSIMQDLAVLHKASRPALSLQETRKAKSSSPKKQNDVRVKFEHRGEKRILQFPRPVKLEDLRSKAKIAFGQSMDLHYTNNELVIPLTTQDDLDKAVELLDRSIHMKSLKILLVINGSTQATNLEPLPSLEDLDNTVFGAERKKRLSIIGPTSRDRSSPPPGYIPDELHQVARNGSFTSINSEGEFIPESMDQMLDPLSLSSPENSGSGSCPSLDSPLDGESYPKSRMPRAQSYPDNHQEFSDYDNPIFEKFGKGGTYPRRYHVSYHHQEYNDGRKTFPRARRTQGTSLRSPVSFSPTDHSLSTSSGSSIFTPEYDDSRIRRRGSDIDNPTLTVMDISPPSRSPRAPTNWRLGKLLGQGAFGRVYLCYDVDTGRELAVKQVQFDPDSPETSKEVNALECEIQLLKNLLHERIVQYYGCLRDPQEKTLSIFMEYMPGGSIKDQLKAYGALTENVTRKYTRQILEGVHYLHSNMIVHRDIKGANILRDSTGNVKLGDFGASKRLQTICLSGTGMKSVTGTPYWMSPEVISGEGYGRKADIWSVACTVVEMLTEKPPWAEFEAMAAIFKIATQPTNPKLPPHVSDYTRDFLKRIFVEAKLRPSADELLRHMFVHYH"}, "FAK": {"target": "T5, FAK (Homo sapiens, UniProt Q05397)", "T5 construct": "gene PTK2"}, "KIT(V559D,V654A)": {"target": "KIT(V559D,V654A) (Homo sapiens, UniProt P10721, V559D/V654A)", "sequence (P10721 whole entry V559D/V654A)": "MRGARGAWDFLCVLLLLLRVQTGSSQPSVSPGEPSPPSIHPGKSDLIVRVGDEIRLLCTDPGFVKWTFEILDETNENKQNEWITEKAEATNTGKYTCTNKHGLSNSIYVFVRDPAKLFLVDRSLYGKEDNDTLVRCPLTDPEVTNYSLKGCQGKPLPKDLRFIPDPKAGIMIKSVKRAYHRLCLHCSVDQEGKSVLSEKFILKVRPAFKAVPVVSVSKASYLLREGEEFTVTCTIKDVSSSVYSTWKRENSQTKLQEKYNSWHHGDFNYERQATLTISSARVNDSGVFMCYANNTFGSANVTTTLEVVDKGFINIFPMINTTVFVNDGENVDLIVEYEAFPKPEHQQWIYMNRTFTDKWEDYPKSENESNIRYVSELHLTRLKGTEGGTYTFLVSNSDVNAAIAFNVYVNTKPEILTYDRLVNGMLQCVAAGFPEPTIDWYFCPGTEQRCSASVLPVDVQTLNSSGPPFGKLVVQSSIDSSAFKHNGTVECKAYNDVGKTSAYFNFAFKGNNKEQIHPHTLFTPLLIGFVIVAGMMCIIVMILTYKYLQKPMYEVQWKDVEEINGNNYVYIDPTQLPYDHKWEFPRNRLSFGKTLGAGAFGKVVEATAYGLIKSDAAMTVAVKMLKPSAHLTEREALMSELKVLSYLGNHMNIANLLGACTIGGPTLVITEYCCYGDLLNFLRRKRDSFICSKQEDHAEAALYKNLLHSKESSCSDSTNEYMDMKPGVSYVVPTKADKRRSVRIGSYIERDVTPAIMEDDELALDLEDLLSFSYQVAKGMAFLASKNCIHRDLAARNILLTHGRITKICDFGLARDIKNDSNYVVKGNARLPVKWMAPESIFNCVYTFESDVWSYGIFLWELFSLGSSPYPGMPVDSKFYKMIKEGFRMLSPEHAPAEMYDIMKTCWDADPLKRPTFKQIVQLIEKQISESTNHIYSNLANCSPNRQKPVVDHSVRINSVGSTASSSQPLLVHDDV"}, "MET": {"target": "MET (Homo sapiens, UniProt P08581)"}, "[2]": {"target": "T6, ABL1(Q252H)-phosphorylated (Homo sapiens, UniProt P00519, Q252H)", "T6 construct": "phosphorylated"}, "[3]": {"target": "T7, RPS6KA4(Kin.Dom.2-C-terminal) (Homo sapiens, UniProt O75676)", "T7 construct": "Kin.Dom.2-C-terminal"}, "DAPK1": {"target": "DAPK1 (Homo sapiens, UniProt P53355)", "sequence (P53355 whole entry)": "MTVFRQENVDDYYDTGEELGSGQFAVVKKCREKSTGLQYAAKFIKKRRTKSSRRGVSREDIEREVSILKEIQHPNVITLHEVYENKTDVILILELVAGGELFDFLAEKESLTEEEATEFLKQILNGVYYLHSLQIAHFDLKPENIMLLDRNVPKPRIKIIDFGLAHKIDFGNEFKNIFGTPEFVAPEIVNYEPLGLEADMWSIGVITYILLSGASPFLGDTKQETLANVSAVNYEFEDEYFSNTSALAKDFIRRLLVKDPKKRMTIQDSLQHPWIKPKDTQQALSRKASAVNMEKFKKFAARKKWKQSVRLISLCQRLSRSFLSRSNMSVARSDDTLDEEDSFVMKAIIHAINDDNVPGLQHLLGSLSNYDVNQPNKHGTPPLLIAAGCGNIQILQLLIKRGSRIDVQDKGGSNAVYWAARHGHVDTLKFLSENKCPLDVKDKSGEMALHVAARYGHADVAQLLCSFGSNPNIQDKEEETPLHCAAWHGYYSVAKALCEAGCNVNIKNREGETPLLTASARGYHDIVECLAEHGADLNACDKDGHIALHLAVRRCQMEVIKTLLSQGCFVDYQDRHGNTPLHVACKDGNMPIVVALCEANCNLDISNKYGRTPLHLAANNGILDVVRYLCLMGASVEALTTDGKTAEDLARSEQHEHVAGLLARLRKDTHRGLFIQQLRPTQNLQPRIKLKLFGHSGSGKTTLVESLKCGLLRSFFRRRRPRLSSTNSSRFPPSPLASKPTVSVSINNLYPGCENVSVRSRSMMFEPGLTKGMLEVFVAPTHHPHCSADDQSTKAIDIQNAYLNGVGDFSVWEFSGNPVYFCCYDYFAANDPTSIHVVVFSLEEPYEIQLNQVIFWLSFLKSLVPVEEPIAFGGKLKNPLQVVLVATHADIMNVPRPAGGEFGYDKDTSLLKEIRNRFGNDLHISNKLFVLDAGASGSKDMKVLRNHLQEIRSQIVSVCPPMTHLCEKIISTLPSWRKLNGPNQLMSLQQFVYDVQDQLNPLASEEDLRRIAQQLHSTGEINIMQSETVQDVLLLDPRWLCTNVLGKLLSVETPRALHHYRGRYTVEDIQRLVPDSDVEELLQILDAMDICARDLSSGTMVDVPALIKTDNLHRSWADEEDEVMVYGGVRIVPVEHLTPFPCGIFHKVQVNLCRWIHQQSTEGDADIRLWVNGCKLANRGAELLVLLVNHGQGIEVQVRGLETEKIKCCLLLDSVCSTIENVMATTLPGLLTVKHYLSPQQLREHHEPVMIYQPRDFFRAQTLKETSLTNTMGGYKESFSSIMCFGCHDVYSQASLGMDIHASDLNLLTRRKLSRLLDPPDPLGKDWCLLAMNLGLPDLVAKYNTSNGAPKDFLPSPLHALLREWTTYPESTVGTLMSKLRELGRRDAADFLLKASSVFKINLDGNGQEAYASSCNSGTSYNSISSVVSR"}, "MLK3": {"target": "T8, MLK3 (Homo sapiens, UniProt Q16584)", "T8 construct": "gene MAP3K11"}, "IGF1R": {"target": "IGF1R (Homo sapiens, UniProt P08069)"}, "YSK1": {"target": "T9, YSK1 (Homo sapiens, UniProt O00506)", "T9 construct": "gene STK25"}, "ERBB3": {"target": "ERBB3 (Homo sapiens, UniProt P21860)"}, "MAP3K15": {"target": "MAP3K15 (Homo sapiens, UniProt Q6ZN16)"}, "[4]": {"details": "read-out: Percent control / Acalabrutinib"}, "[5]": {"details": "read-out: Percent control / Ibrutinib"}, "[6]": {"details": "read-out: Percent control / Zanubrutinib"}}, "note": "Read-outs that look alike come from different tables or passages of the source.", "data": [{"molecule": "CC#CC(=O)N1CCC[C@H]1c1nc(-c2ccc(C(=O)Nc3ccccn3)cc2)c2c(N)nccn12", "note": "[Acalabrutinib]", "values": [{"measurement": "remaining binding at 0.3 µM", "setting": "PIK3CA(M1043I); [4]", "result": 90, "unit": "%"}, {"measurement": "remaining binding at 0.3 µM", "setting": "MEK3; [4]", "result": 99, "unit": "%"}, {"measurement": "remaining binding at 0.3 µM", "setting": "CIT; [4]", "result": 81, "unit": "%"}, {"measurement": "remaining binding at 0.3 µM", "setting": "PKMYT1; [4]", "result": 94, "unit": "%"}, {"measurement": "remaining binding at 0.3 µM", "setting": "ABL1-phosphorylated; [4]", "result": 95, "unit": "%"}, {"measurement": "remaining binding at 0.3 µM", "setting": "PIK3CA; [4]", "result": 97, "unit": "%"}, {"measurement": "remaining binding at 0.3 µM", "setting": "MAPKAPK2; [4]", "result": 72, "unit": "%"}, {"measurement": "remaining binding at 0.3 µM", "setting": "MYLK; [4]", "result": 82, "unit": "%"}, {"measurement": "remaining binding at 0.3 µM", "setting": "[1]; [4]", "result": 78, "unit": "%"}, {"measurement": "remaining binding at 0.3 µM", "setting": "TBK1; [4]", "result": 91, "unit": "%"}, {"measurement": "remaining binding at 0.3 µM", "setting": "YANK1; [4]", "result": 97, "unit": "%"}, {"measurement": "remaining binding at 0.3 µM", "setting": "MAP3K2; [4]", "result": 97, "unit": "%"}, {"measurement": "remaining binding at 0.3 µM", "setting": "FAK; [4]", "result": 79, "unit": "%"}, {"measurement": "remaining binding at 0.3 µM", "setting": "KIT(V559D,V654A); [4]", "result": 94, "unit": "%"}, {"measurement": "remaining binding at 0.3 µM", "setting": "MET; [4]", "result": 90, "unit": "%"}, {"measurement": "remaining binding at 0.3 µM", "setting": "[2]; [4]", "result": 86, "unit": "%"}, {"measurement": "remaining binding at 0.3 µM", "setting": "[3]; [4]", "result": 96, "unit": "%"}, {"measurement": "remaining binding at 0.3 µM", "setting": "DAPK1; [4]", "result": 94, "unit": "%"}, {"measurement": "remaining binding at 0.3 µM", "setting": "MLK3; [4]", "result": 87, "unit": "%"}, {"measurement": "remaining binding at 0.3 µM", "setting": "IGF1R; [4]", "result": 91, "unit": "%"}]}, {"molecule": "C=CC(=O)N1CCC[C@@H](n2nc(-c3ccc(Oc4ccccc4)cc3)c3c(N)ncnc32)C1", "note": "[Ibrutinib]", "values": [{"measurement": "remaining binding at 0.3 µM", "setting": "MEK3; [5]", "result": 93, "unit": "%"}, {"measurement": "remaining binding at 0.3 µM", "setting": "[1]; [5]", "result": 54, "unit": "%"}, {"measurement": "remaining binding at 0.3 µM", "setting": "YSK1; [5]", "result": 85, "unit": "%"}, {"measurement": "remaining binding at 0.3 µM", "setting": "ERBB3; [5]", "result": 1.2, "unit": "%"}, {"measurement": "remaining binding at 0.3 µM", "setting": "MAP3K15; [5]", "result": 96, "unit": "%"}]}, {"molecule": "CC#CC(=O)N1CC[C@@H](n2c(=O)n(-c3ccc(Oc4ccccc4)cc3)c3c(N)ncnc32)C1", "note": "[Tirabrutinib]", "values": [{"measurement": "remaining binding at 0.3 µM", "setting": "[2]; read-out: Percent control / Tirabrutinib", "result": 87, "unit": "%"}]}, {"molecule": "C=CC(=O)N1CCC([C@@H]2CCNc3c(C(N)=O)c(-c4ccc(Oc5ccccc5)cc4)nn32)CC1", "note": "[Zanubrutinib]", "values": [{"measurement": "remaining binding at 0.3 µM", "setting": "PIK3CA(M1043I); [6]", "result": 90, "unit": "%"}, {"measurement": "remaining binding at 0.3 µM", "setting": "CIT; [6]", "result": 100, "unit": "%"}, {"measurement": "remaining binding at 0.3 µM", "setting": "PKMYT1; [6]", "result": 81, "unit": "%"}, {"measurement": "remaining binding at 0.3 µM", "setting": "ABL1-phosphorylated; [6]", "result": 77, "unit": "%"}, {"measurement": "remaining binding at 0.3 µM", "setting": "PIK3CA; [6]", "result": 57, "unit": "%"}, {"measurement": "remaining binding at 0.3 µM", "setting": "MAPKAPK2; [6]", "result": 96, "unit": "%"}, {"measurement": "remaining binding at 0.3 µM", "setting": "MYLK; [6]", "result": 82, "unit": "%"}, {"measurement": "remaining binding at 0.3 µM", "setting": "TBK1; [6]", "result": 93, "unit": "%"}, {"measurement": "remaining binding at 0.3 µM", "setting": "YANK1; [6]", "result": 75, "unit": "%"}, {"measurement": "remaining binding at 0.3 µM", "setting": "MAP3K2; [6]", "result": 85, "unit": "%"}, {"measurement": "remaining binding at 0.3 µM", "setting": "FAK; [6]", "result": 100, "unit": "%"}, {"measurement": "remaining binding at 0.3 µM", "setting": "KIT(V559D,V654A); [6]", "result": 90, "unit": "%"}, {"measurement": "remaining binding at 0.3 µM", "setting": "YSK1; [6]", "result": 88, "unit": "%"}, {"measurement": "remaining binding at 0.3 µM", "setting": "ERBB3; [6]", "result": 87, "unit": "%"}, {"measurement": "remaining binding at 0.3 µM", "setting": "MET; [6]", "result": 96, "unit": "%"}, {"measurement": "remaining binding at 0.3 µM", "setting": "[3]; [6]", "result": 100, "unit": "%"}, {"measurement": "remaining binding at 0.3 µM", "setting": "DAPK1; [6]", "result": 87, "unit": "%"}, {"measurement": "remaining binding at 0.3 µM", "setting": "MAP3K15; [6]", "result": 54, "unit": "%"}, {"measurement": "remaining binding at 0.3 µM", "setting": "MLK3; [6]", "result": 98, "unit": "%"}, {"measurement": "remaining binding at 0.3 µM", "setting": "IGF1R; [6]", "result": 96, "unit": "%"}]}]}
